In the NIST ThermoML archive (doi:10.1016/j.jct.2011.12.024):

Experiment: refractive index (other wavelength) (dimensionless); xn = mol fraction of the nth substance listed
Conditions: 101.33 kPa, Liquid, Wavelength=632.8 nm, Standard Abbe refractometry

COC(=O)CCCCC(=O)OC [dimethyl 1,6-hexanedioate] + CCCCCCC
Conditions	refractive index
289.5 K, x1 = 1	1.4287
291.65 K, x1 = 1	1.4279
292.22 K, x1 = 0.1018	1.3909
292.85 K, x1 = 0.5999	1.412
293.07 K, x1 = 0.7009	1.4159
293.2 K, x1 = 0.8979	1.4236
293.27 K, x1 = 0.1018	1.3904
293.28 K, x1 = 0.8048	1.42
293.87 K, x1 = 0.5999	1.4115
294.11 K, x1 = 0.8979	1.4232
294.12 K, x1 = 0.7009	1.4155
294.22 K, x1 = 0.8048	1.4196
294.37 K, x1 = 0.1018	1.3898
294.86 K, x1 = 0.5999	1.4111
294.9 K, x1 = 1	1.4265
294.96 K, x1 = 0.2007	1.398
295.01 K, x1 = 0.8979	1.4228
295.12 K, x1 = 0.8048	1.4192
295.15 K, x1 = 0.7009	1.415
295.39 K, x1 = 0.1018	1.3893
295.61 K, x1 = 0.3992	1.402
295.8 K, x1 = 0.4976	1.4062
295.83 K, x1 = 0.5999	1.4107
295.94 K, x1 = 0.8979	1.4224
295.95 K, x1 = 0.2007	1.3975
296.09 K, x1 = 0.8048	1.4188
296.15 K, x1 = 0.7009	1.4146
296.45 K, x1 = 0.1018	1.3888
296.65 K, x1 = 0.3992	1.4016
296.81 K, x1 = 0.5999	1.4103
296.89 K, x1 = 0.8979	1.422
296.9 K, x1 = 0.4976	1.4056
296.91 K, x1 = 0.2007	1.3971
296.94 K, x1 = 1	1.4257
297.08 K, x1 = 0.8048	1.4184
297.23 K, x1 = 0.7009	1.4142
297.45 K, x1 = 0.1018	1.3883
297.64 K, x1 = 0.3992	1.4011
297.81 K, x1 = 0.8979	1.4216
297.87 K, x1 = 0.5999	1.4098
297.95 K, x1 = 0.4976	1.4052
298.02 K, x1 = 0.2007	1.3965
298.02 K, x1 = 0.8048	1.418
298.15 K, x1 = 0.7009	1.4138
298.66 K, x1 = 0.3992	1.4007
298.92 K, x1 = 0.4976	1.4048
299.11 K, x1 = 0.2007	1.396
299.7 K, x1 = 0.3992	1.4002
299.93 K, x1 = 0.4976	1.4043
300.15 K, x1 = 0.2007	1.3955
300.67 K, x1 = 0.3992	1.3997
300.93 K, x1 = 0.4976	1.4039
301.21 K, x1 = 0.2007	1.395
301.74 K, x1 = 0.3992	1.3992
301.98 K, x1 = 0.4976	1.4034
